Each structure is given as a SMILES string.

The target in the experiment is T1, ΔF508-CFTR (Homo sapiens, UniProt P13569, DEL508-508).
T1 construct: Primary lung epithelial cells homozygous for the Cystic Fibrosis-causing ΔF508 mutation were differentiated for a minimum of 4 weeks; endogenous in cells; host or cells: primary lung epithelial cells (hBE) homozygous for ΔF508, differentiated at an air-liquid interface
T1 sequence (P13569 with tags, fused parts or gaps DEL508-508): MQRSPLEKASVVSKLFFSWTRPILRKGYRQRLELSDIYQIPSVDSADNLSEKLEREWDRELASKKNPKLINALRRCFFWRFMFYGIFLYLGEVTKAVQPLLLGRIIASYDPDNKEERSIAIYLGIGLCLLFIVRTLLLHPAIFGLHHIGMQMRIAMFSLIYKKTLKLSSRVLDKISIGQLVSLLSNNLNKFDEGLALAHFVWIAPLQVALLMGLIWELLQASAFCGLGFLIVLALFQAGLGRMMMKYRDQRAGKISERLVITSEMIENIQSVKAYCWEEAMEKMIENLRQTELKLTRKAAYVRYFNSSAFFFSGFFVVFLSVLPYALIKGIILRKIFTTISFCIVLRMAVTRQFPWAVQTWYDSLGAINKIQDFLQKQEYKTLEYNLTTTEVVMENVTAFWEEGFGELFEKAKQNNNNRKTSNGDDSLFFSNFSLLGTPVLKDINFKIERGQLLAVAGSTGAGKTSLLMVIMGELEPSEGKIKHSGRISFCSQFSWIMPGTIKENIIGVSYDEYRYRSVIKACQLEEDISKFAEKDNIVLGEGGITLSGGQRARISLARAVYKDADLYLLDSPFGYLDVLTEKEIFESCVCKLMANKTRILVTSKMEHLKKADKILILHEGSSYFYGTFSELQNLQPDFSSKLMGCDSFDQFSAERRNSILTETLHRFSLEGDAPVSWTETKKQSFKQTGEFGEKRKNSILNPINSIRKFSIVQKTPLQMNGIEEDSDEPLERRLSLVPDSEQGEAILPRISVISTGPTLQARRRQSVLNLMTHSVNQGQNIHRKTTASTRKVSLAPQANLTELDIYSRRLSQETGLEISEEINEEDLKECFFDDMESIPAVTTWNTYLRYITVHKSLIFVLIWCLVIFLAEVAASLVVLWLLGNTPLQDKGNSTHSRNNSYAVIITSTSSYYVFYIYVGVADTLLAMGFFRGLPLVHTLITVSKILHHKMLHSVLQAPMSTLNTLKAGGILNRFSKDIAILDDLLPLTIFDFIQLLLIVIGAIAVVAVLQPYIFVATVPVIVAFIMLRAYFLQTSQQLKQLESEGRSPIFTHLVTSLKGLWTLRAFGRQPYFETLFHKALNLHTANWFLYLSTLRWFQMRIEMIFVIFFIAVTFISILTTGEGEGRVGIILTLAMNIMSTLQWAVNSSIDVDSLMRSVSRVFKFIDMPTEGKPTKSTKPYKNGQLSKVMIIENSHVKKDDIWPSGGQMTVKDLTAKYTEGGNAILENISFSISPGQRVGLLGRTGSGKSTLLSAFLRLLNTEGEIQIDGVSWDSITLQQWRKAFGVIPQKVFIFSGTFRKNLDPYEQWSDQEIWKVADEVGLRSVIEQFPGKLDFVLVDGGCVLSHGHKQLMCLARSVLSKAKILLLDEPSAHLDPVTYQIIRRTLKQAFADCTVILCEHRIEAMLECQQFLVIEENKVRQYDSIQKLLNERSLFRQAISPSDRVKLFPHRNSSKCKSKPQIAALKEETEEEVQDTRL
In words: hBE equivalent current (Ieq) assay: AUC of equivalent chloride current after forskolin/VX-770 in primary lung epithelial cells homozygous for ΔF508. The format is cell-based. As to conditions: relative to CFTR amplifier (Compound A)+VX-809 (3 uM), compound at 10 uM and Compound A at 3 uM, 24 h treatment. A digest of the protocol: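 Readout is the increase over vehicle in equivalent chloride current AUC from forskolin/VX-770 addition to bumetanide, measured by current clamp at 36 °C after benzamil block of ENaC. Cultures were homozygous ΔF508 primary lung epithelium grown ≥4 weeks at air-liquid interface and exposed basolaterally to compound for 24 h.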
With `Cc1c(-c2cc(C(=O)O)c3c(O[C@@H](C)c4ccccc4)ccc(C)c3n2)sc2ccccc12` [Compound 138, 8-Methyl-2-(3-methyl-1-benzothiophen-2-yl)-5-[(1S)-1-phenylethoxy]quinoline-4-carboxylic Acid], the Activity entry was “++ (activity>50% of CFTR amplifier+VX-809 (3 uM) with compound at 10 uM and Compound A at 3 uM)”.
As for `Cc1c(-c2cc(C(=O)[O-])c3c(O[C@@H](C)c4ccc(C5COC5)cc4)ccc(C)c3n2)oc2ccccc12.[Na+]` [Compound 286, Sodium 8-Methyl-2-(3-methyl-1-benzofuran-2-yl)-5-[(1S)-1-[4-(oxetan-3-yl)phenyl]ethoxy]quinoline-4-carboxylate], the Activity result was “++ (activity>50% of CFTR amplifier+VX-809 (3 uM) with compound at 10 uM and Compound A at 3 uM)”.
As for `CCc1ccc(OCc2cccc(C)c2)c2c(C(=O)O)cc(-c3csc4ccccc34)nc12` [Compound 188], the Activity entry was “++ (activity>50% of CFTR amplifier+VX-809 (3 uM) with compound at 10 uM and Compound A at 3 uM)”.
Take `Cc1c(-c2cc(C(=O)O)c3cc(OCc4ccccc4)cc(C)c3n2)oc2ccccc12` [Compound 24, 6-(Benzyloxy)-8-methyl-2-(3-methyl-1-benzofuran-2-yl)quinoline-4-carboxylic acid]: the Activity result is “++ (activity>50% of CFTR amplifier+VX-809 (3 uM) with compound at 10 uM and Compound A at 3 uM)”.
`Cc1c(-c2cc(C(=O)O)c3c(O[C@H]4CC[C@H](c5ccccc5)CC4)ccc(C)c3n2)oc2ccccc12` [Compound 76, 8-Methyl-2-(3-methyl-1-benzofuran-2-yl)-5-[[(1r,4r)-4-phenylcyclohexyl]oxy]quinoline-4-carboxylic acid]: the Activity result is “++ (activity>50% of CFTR amplifier+VX-809 (3 uM) with compound at 10 uM and Compound A at 3 uM)”.
As for `CCc1ccc(C)c2nc(-c3oc4ccccc4c3C)cc(C(=O)O)c12` [Compound 113, 5-Ethyl-8-methyl-2-(3-methyl-1-benzofuran-2-yl)quinoline-4-carboxylic acid], the entry is “+ (activity<50% of an CFTR amplifier (Compound A)+VX-809 (3 uM) with compound at 10 uM and Compound A at 3 uM)”; as for `Cc1c(-c2cc(C(=O)[O-])c3c(O[C@H]4C[C@H](c5ccccc5)C4)ccc(C)c3n2)sc2ccccc12.[Na+]` [Compound 283, Sodium 8-Methyl-2-(3-methyl-1-benzothiophen-2-yl)-5-[(1r,3r)-3-phenylcyclobutoxy]quinoline-4-carboxylate], “++ (activity>50% of CFTR amplifier+VX-809 (3 uM) with compound at 10 uM and Compound A at 3 uM)”.
For the compound `Cc1cc(C)c2nc(-c3cc4ccccc4s3)nc(C(=O)O)c2c1` [Compound 4, 2-(1-Benzothiophen-2-yl)-6,8-dimethylquinazoline-4-carboxylic Acid], the Activity entry was “+ (activity<50% of an CFTR amplifier (Compound A)+VX-809 (3 uM) with compound at 10 uM and Compound A at 3 uM)”.
Regarding `Cc1c(-c2cc(C(=O)O)c3c(NCc4ccccc4)ccc(C)c3n2)oc2ccccc12` [Compound 116, 5-(Benzylamino)-8-methyl-2-(3-methyl-1-benzofuran-2-yl)quinoline-4-carboxylic Acid], the Activity entry is “++ (activity>50% of CFTR amplifier+VX-809 (3 uM) with compound at 10 uM and Compound A at 3 uM)”.
Take `COc1ccccc1COc1ccc(C)c2nc(-c3sc4ccccc4c3C)cc(C(=O)[O-])c12.[Na+]` [Compound 292, Sodium 5-[(2-Methoxyphenyl)methoxy]-8-methyl-2-(3-methyl-1-benzothiophen-2-yl)quinoline-4-carboxylate]: the Activity entry was “++ (activity>50% of CFTR amplifier+VX-809 (3 uM) with compound at 10 uM and Compound A at 3 uM)”.
As for `Cc1cc(C)c2nc(-c3oc4ccccc4c3C)c(C(=O)O)cc2c1` [Compound 105, 6,8-Dimethyl-2-(3-methyl-1-benzofuran-2-yl)quinoline-3-carboxylic Acid], the Activity result was “+ (activity<50% of an CFTR amplifier (Compound A)+VX-809 (3 uM) with compound at 10 uM and Compound A at 3 uM)”.
With `Cc1c(-c2cc(C(=O)O)c3c(OC4CCCC(c5ccccc5)C4)ccc(C)c3n2)oc2ccccc12` (stereo not drawn) [Compound 77, 8-Methyl-2-(3-methyl-1-benzofuran-2-yl)-5-[(3-phenylcyclohexyl)oxy]quinoline-4-carboxylic acid], the Activity result is “++ (activity>50% of CFTR amplifier+VX-809 (3 uM) with compound at 10 uM and Compound A at 3 uM)”.
With `Cc1c(-c2cc(C(=O)[O-])c3c(OC(C)c4ccc(C5COC5)cc4)ccc(C)c3n2)oc2ccccc12.[Na+]` (stereo not drawn) [Compound 372], the Activity entry is “++ (activity>50% of CFTR amplifier+VX-809 (3 uM) with compound at 10 uM and Compound A at 3 uM)”.
Take `CCc1ccc(O[C@H]2CCC[C@H](C)C2)c2c(C(=O)[O-])cc(-c3sc4ccccc4c3C)nc12.[Na+]` [Compound 216, Sodium 8-Ethyl-2-(3-methyl-1-benzothiophen-2-yl)-5-[[(1S,3S)-3-methylcyclohexyl]oxy]quinoline-4-carboxylate]: the Activity result is “++ (activity>50% of CFTR amplifier+VX-809 (3 uM) with compound at 10 uM and Compound A at 3 uM)”.
Turning to `Cc1c(-c2cc(C(=O)[O-])c3c(O[C@H]4C[C@H]5CC[C@@H](C4)O5)ccc(C)c3n2)oc2ccccc12.[Na+]` [Compound 355], the Activity result was “++ (activity>50% of CFTR amplifier+VX-809 (3 uM) with compound at 10 uM and Compound A at 3 uM)”.
As for `Cc1c(-c2cc(C(=O)O)c3c(OCc4ccccc4)ccc(F)c3n2)oc2ccccc12` [Compound 110, 5-(Benzyloxy)-8-fluoro-2-(3-methyl-1-benzofuran-2-yl)quinoline-4-carboxylic acid], the Activity result is “++ (activity>50% of CFTR amplifier+VX-809 (3 uM) with compound at 10 uM and Compound A at 3 uM)”.
As for `Cc1c(-c2cc(C(=O)[O-])c3c(OC[C@@H]4C[C@H]5CC[C@@H](C4)O5)ccc(C)c3n2)sc2ccccc12.[Na+]` [Compound 358], the entry is “++ (activity>50% of CFTR amplifier+VX-809 (3 uM) with compound at 10 uM and Compound A at 3 uM)”; as for `Cc1c(-c2cc(C(=O)[O-])c3c(O[C@@H](C)c4ccc(S(C)(=O)=O)cc4)ccc(C)c3n2)oc2ccccc12.[Na+]` [Compound 230, Sodium 5-[(1S)-1-(4-methanesulfonylphenyl)ethoxy]-8-methyl-2-(3-methyl-1-benzofuran-2-yl)quinoline-4-carboxylate], “++ (activity>50% of CFTR amplifier+VX-809 (3 uM) with compound at 10 uM and Compound A at 3 uM)”.
For `Cc1c(-c2cc(C(=O)[O-])c3c(O[C@H]4C[C@@H](c5ccccc5)C4)ccc(C)c3n2)sc2ccccc12.[Na+]` [Compound 284, Sodium 8-Methyl-2-(3-methyl-1-benzothiophen-2-yl)-5-[(1s,3s)-3-phenylcyclobutoxy]quinoline-4-carboxylate], the Activity entry was “++ (activity>50% of CFTR amplifier+VX-809 (3 uM) with compound at 10 uM and Compound A at 3 uM)”.
Turning to `CCc1cc(C(C)(C)C)cc2c(C(=O)O)cc(-c3c(C)oc4ccccc34)nc12` [Compound 178, 6-tert-Butyl-8-ethyl-2-(2-methyl-1-benzofuran-3-yl)quinoline-4-carboxylic acid], the Activity entry is “++ (activity>50% of CFTR amplifier+VX-809 (3 uM) with compound at 10 uM and Compound A at 3 uM)”.
Regarding `Cc1c(-c2cc(C(=O)[O-])c3c(O[C@@H](C)C4CCCCC4)ccc(C)c3n2)oc2ccccc12.[Na+]` [Compound 244], the Activity result was “++ (activity>50% of CFTR amplifier+VX-809 (3 uM) with compound at 10 uM and Compound A at 3 uM)”.
